Data reported in US4201769A, “Antibiotic substances No. 17927A1 and No. 17927A2 and process for producing the same” (Sankyo Company Limited, priority 1977, dated 1980).
Where two headings read alike, the source gives them in different places.

Tests used:
Type in all cases: cell-based
Proteus rettgeri 1603 = test: Synergistic action with Ampicillin or Cephaloridine (MIC)
Procedure: (§1) (13) Synergistic action: Synergistic action of the substance No. 17927A2 having 0.23 μg/ml of I50 (50% Inhibitory concentration) against β-lactamase produced from Proteus morganii with Cephaloridine or Ampicillin are summarized in Tables 6 and 7.
(§2) (13) Synergistic action: Synergistic action of the substance No. 17927A1 having 0.27 μg/ml of I50 (50% Inhibitory concentration) against β-lactamase produced from Proteus morganii with Cephaloridine are summarized in Table 10.

Escherichia coli 718 = test: Synergistic action with Ampicillin (MIC)
Procedure: as §1

Escherichia coli 640 = test: Synergistic action with Ampicillin (MIC)
Procedure: as §1

Proteus mirabilis 1332 = test: Synergistic action with Cephaloridine (MIC)
Procedure: as §2

Escherichia coli 609 = test: Synergistic action with Cephaloridine (MIC)
Procedure: as §2

Proteus morganii 1510 = test: Synergistic action with Cephaloridine (MIC)
Procedure: as §2

[1] = test system: Klebsiella pneumoniae 847; test: Synergistic action with Cephaloridine (MIC)
Procedure: as §1, §2

Proteus inconstans 1708 = test: Synergistic action with Cephaloridine (MIC)
Procedure: as §1, §2

[2] = No. 17927A2 coexisted 0.1 μg/ml
[3] = No. 17927A1 coexisted 0.1 μg/ml
[4] = No. 17927A1 coexisted 0.4 μg/ml

## CC1(C)S[C@@H]2[C@H](NC(=O)[C@H](N)c3ccccc3)C(=O)N2[C@H]1C(=O)O [Ampicillin]
Proteus rettgeri 1603; [2]
  MIC, Ampicillin with No. 17927A2 coexisted: 50 µg/mL
Proteus rettgeri 1603; Providencia rettgeri, 1603, read-out: MIC, Ampicillin alone
  MIC: 100 µg/mL
Escherichia coli 718; Escherichia coli, 718, read-out: MIC, Ampicillin alone
  MIC: 800 µg/mL
Escherichia coli 718; [2]
  MIC, Ampicillin with No. 17927A2 coexisted: 25 µg/mL
Escherichia coli 640; Escherichia coli, 640, read-out: MIC, Ampicillin alone
  MIC: 25 µg/mL
Escherichia coli 640; [2]
  MIC, Ampicillin with No. 17927A2 coexisted: 1.56 µg/mL

## O=C(Cc1cccs1)N[C@@H]1C(=O)N2C(C(=O)[O-])=C(C[n+]3ccccc3)CS[C@H]12 [Cephaloridine]
Proteus mirabilis 1332; [3]
  MIC, Cephaloridine with No. 17927A1 coexisted: 50 µg/mL
Proteus mirabilis 1332; [4]
  MIC, Cephaloridine with No. 17927A1 coexisted: 50 µg/mL
Proteus mirabilis 1332; Proteus mirabilis, 1332, read-out: MIC, Cephaloridine alone
  MIC: 100 µg/mL
Escherichia coli 609; Escherichia coli, 609, read-out: MIC, Cephaloridine alone
  MIC: 100 µg/mL
Escherichia coli 609; [3]
  MIC, Cephaloridine with No. 17927A1 coexisted: 100 µg/mL
Escherichia coli 609; [4]
  MIC, Cephaloridine with No. 17927A1 coexisted: 50 µg/mL
Proteus morganii 1510; Morganella morganii, 1510, read-out: MIC, Cephaloridine alone
  MIC: 1600 µg/mL
Proteus morganii 1510; [3]
  MIC, Cephaloridine with No. 17927A1 coexisted: 50 µg/mL
Proteus morganii 1510; [4]
  MIC, Cephaloridine with No. 17927A1 coexisted: 50 µg/mL
Proteus rettgeri 1603; [3]
  MIC, Cephaloridine with No. 17927A1 coexisted: 50 µg/mL
Proteus rettgeri 1603; [4]
  MIC, Cephaloridine with No. 17927A1 coexisted: 25 µg/mL
Proteus rettgeri 1603; Providencia rettgeri, 1603, read-out: MIC, Cephaloridine alone
  MIC: 1600 µg/mL
[1]; Klebsiella pneumoniae, 847, read-out: MIC, Cephaloridine alone
  MIC: 100 µg/mL
[1]; [3]
  MIC, Cephaloridine with No. 17927A1 coexisted: 12.5 µg/mL
[1]; [4]
  MIC, Cephaloridine with No. 17927A1 coexisted: 12.5 µg/mL
[1]; [2]
  MIC, Cephaloridine with No. 17927A2 coexisted: 12.5 µg/mL
Proteus inconstans 1708; [3]
  MIC, Cephaloridine with No. 17927A1 coexisted: 6.25 µg/mL
Proteus inconstans 1708; [4]
  MIC, Cephaloridine with No. 17927A1 coexisted: 3.13 µg/mL
Proteus inconstans 1708; [2]
  MIC, Cephaloridine with No. 17927A2 coexisted: 12.5 µg/mL
Proteus inconstans 1708; Providencia alcalifaciens, 1708, read-out: MIC, Cephaloridine alone
  MIC: 1600 µg/mL
